The values below come from patent EP4722228A1, “NEW COMPOUND TARGETING MUSK AND USE THEREOF” (The University of Tokyo, priority 2023, dated 2024).

For this assay, the target named is T1, human MuSK (Homo sapiens, UniProt O15146).
T1 construct: fused downstream of the extracellular portion (amino acids 1-493) of human MuSK cDNA clone; made in house; host or cells: Expi293 cells; unpurified culture supernatant used
T1 sequence (O15146 24-493) 1: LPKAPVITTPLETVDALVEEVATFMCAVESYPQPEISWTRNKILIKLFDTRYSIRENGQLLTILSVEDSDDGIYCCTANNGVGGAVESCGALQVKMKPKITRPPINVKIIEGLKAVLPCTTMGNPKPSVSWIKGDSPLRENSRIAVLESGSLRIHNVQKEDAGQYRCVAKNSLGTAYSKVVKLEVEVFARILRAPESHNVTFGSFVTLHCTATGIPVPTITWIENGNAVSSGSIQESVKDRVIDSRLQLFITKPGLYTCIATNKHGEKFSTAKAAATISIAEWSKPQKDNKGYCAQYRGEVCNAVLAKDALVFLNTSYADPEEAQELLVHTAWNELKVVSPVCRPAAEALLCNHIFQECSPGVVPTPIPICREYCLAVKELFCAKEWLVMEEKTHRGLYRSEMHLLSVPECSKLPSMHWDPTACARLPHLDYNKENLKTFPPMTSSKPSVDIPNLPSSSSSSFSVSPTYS
T1 sequence (O15146 24-493) 2: T1 sequence (O15146 24-493) 1
The experiment in a line: MuSK dimerization activity (NanoBiT assay). It is filed as biochemical. As for the experimental part: Expi293 cells were purchased from Thermo Fisher Scientific Inc. and used. For subculture, DMEM (high glucose, GlutaMAX supplement, pyruvate; GIBCO) supplemented with 10% fetal bovine serum (FBS; GIBCO) was used. For passage, after the culture medium was removed by suction, adherent cells were washed with phosphate buffered saline (PBS(-)), and HBSS (GIBCO) containing no Mg^2+ and Ca^2+ and containing 0.25% trypsin and 1 mM ethylenediaminetetraacetic acid was added, and the mixture was reacted in a CO2 incubator (37°C, 5% CO2) for 5 minutes. The detached cells were collected and then centrifuged at 1000 rpm at 4°C for 5 minutes (Sorvall X4R Pro, Thermo Fisher Scientific Inc.). After the supernatant was removed by suction, the cells were suspended in fresh culture medium and expanded in a new culture vessel.
In the steady state, their affinity is estimated to be about 190 µM, and the amount of luminescence is very small even in the presence of substrate. […] A technique for evaluating interactions between two arbitrary proteins by utilizing this property is the NanoBiT assay. […]
The effect of the U-bodies and their complexes on clustering of acetylcholine receptors was evaluated. […]

Bridge positions count the residues as written; N and C are the ends. Square brackets hold non-standard residues; d marks the D form. Peptide text beside a SMILES is read from it. I, II: the chains in the order shown. * marks the point of attachment. Palmitoyl = CCCCCCCCCCCCCCCC(=O)*; PEG3 = NCCOCCOCCOCCC(=O)O; Dap = NC[C@H](N)C(=O)O

Turning to `CCCCCCCCCCCCCCCC(=O)NCCCC[C@H](NC(=O)[C@H](CNC(=O)CCOCCOCCOCCNC(=O)CNC(=O)[C@@H]1CSCC(=O)N[C@H](Cc2ccc(O)cc2)C(=O)N2CCC[C@H]2C(=O)N[C@@H](CO)C(=O)N[C@@H](Cc2ccc(O)cc2)C(=O)N[C@@H](Cc2c[nH]cn2)C(=O)N[C@@H]([C@@H](C)O)C(=O)N[C@@H](CC(N)=O)C(=O)N[C@@H](C(C)C)C(=O)N[C@@H](C(C)C)C(=O)N[C@@H](C)C(=O)N[C@@H](CO)C(=O)N[C@@H](CC(C)C)C(=O)N[C@@H](CCCCN)C(=O)N[C@@H](CCCNC(=N)N)C(=O)N1)NC(=O)CCOCCOCCOCCNC(=O)CNC(=O)[C@@H]1CSCC(=O)N[C@H](Cc2ccc(O)cc2)C(=O)N2CCC[C@H]2C(=O)N[C@@H](CO)C(=O)N[C@@H](Cc2ccc(O)cc2)C(=O)N[C@@H](Cc2c[nH]cn2)C(=O)N[C@@H]([C@@H](C)O)C(=O)N[C@@H](CC(N)=O)C(=O)N[C@@H](C(C)C)C(=O)N[C@@H](C(C)C)C(=O)N[C@@H](C)C(=O)N[C@@H](CO)C(=O)N[C@@H](CC(C)C)C(=O)N[C@@H](CCCCN)C(=O)N[C@@H](CCCNC(=N)N)C(=O)N1)C(N)=O` [MuSK7-pal] (I: {CH2CO}-[dY]PSYHTNVVASLKRCG[PEG3][Dap]K(Palmitoyl)-NH2 / II: {CH2CO}-[dY]PSYHTNVVASLKRCG[PEG3]; amide I:18-II:C; thioether I:N-I:15, II:N-II:15), the MuSK dimerization result (compound concentration exceeded 40 nM) is reported as “conversely tended to decrease”. Besides, the “luminescence (MuSK dimerization)” value (concentration range from the pM order to 40 nM) is listed as “increased in a dose-dependent manner”.
